Source: publication PMC9820592, “Novel Chiral Ru(II) Complexes as Potential c-myc G-quadruplex DNA Stabilizers Inducing DNA Damage to Suppress Triple-Negative Breast Cancer Progression” (International Journal of Molecular Sciences, 2022)

Assays:
[1] = tested on: HaCaT cells; assay: MTT assay, normal HaCaT keratinocytes; assay type: cell-based; conditions: 72 h, normal human keratinocytes, read-out: Inhibitory Effect (IC50/μM) HaCaT
Protocol: (§1) Liver cancer HepG2 cells, lung cancer A549 cells, breast cancer MCF-7 and MDA-MB-231 cells, human nasopharyngeal carcinoma CNE-1 cells, and human immortalized keratinocyte HaCaT cells were seeded in 96-well plates (5 × 10^3 cells per well) and cultured at 37 °C and 5% CO2 for 24 h. Cells were treated with different concentrations of the complexes (0, 1.5625, 3.125, 6.25, 12.5, 25, 50, and 100 µM) for 72 h. After adding 20 µL MTT (5 mg/mL) solution to each well, the cells were incubated for 4 h, and then 150 µL DMSO was added to each well. The optical density of each well was detected by a microplate reader at a wavelength of 570 nm. The cell survival rate (%) = A(experimental group)/A(control group) × 100%, and the IC50 value was analyzed and calculated based on the survival rate.

[2] = tested on: MDA-MB-231 cells; assay: MTT assay, MDA-MB-231 cells; assay type: cell-based, human; conditions: 72 h, read-out: Inhibitory Effect (IC50/μM) MDA-MB-231
Protocol: as §1

[3] = tested on: MCF-7 cells; assay: MTT assay, MCF-7 cells; assay type: cell-based, human; conditions: 72 h, read-out: Inhibitory Effect (IC50/μM) MCF-7
Protocol: as §1

[4] = tested on: A549 cells; assay: MTT assay, A549 cells; assay type: cell-based, human; conditions: 72 h, read-out: Inhibitory Effect (IC50/μM) A549
Protocol: as §1

[5] = tested on: HepG2 cells; assay: MTT assay, HepG2 cells; assay type: cell-based, human; conditions: 72 h, read-out: Inhibitory Effect (IC50/μM) HepG2
Protocol: as §1

[6] = tested on: CNE-1 cells; assay: MTT assay, CNE-1 cells; assay type: cell-based, human; conditions: 72 h, read-out: Inhibitory Effect (IC50/μM) CNE-1
Protocol: as §1

[7] = tested on: c-myc G-quadruplex DNA; assay: FRET melting assay; assay type: binding, human; conditions: free DNA Tm 59.5 °C
Protocol: Carboxy fluorescein (FAM) and 6-carboxytetramethyl rhodamine (TAMRA) double fluorescent-labeled c-myc G4 DNA (5′−FAM-TGAGGGTGGGAGGGGTAA-TAMRA−3′) were heated to 95 °C in Tris-HCl-KCl buffer (containing 10 mM Tris-HCl, 100 mM KCl, pH 7.4) for 5 min and slowly cooled to room temperature. To ds26, double-stranded DNA ([…]) is a competitive binder, research Λ/Δ−3 with c-myc G4 selectivity binding ability of DNA. A Bio-Radiq5 real-time PCR detection system was used to measure the fluorescence melting curve. Approximately 1 μM (5 μL) FPU22T was mixed with a series of 5 μL compound solutions of different concentrations, and 15 μLTris-HCl-KCl buffer was added to the PCR 8 tube to obtain a total volume of 25 μL. A real-time fluorescence quantitative PCR instrument was used, and incubation was performed at 30 °C for 30 min. The program temperature range was set to 30–95 °C at a temperature interval of 1 °C, and recording was performed after balancing for 30 s to detect the fluorescence value of FAM. The conditions of the reaction system were similar to those of the FRET melting point test except that different concentrations of ds26 were added.

[8] = tested on: c-myc G-quadruplex DNA; assay: PCR-stop assay; assay type: biochemical, human; conditions: Taq polymerase
Protocol: In this study, c-myc G4 DNA and its reverse complementary sequence c-myc rev were heated to 95 °C for 5 min, allowed to cool to room temperature, and incubated at 4 °C overnight. The system was supplemented with dNTPs and Taq polymerase for PCR amplification; heated at 95 °C for 3 min, 94 °C for 30 s, and 58 °C for 30 s, with an extension at 72 °C for 30 s (30 cycles); and analyzed by 15% nondenatured polyacrylamide gel electrophoresis and silver staining.

[9] = tested on: MDA-MB-231 cells; assay: EdU proliferation assay; assay type: cell-based, human; conditions: control 50.2%
Protocol: The inhibitory effect of the chiral DPPZ-based Ru(II) complexes (Λ/Δ−1−3) was assessed against different human tumor cancer cells, such as breast cancer MCF-7, MDA-MB-231, lung cancer A549, liver carcinoma HepG2, nasopharyngeal carcinoma CNE-1, and human normal keratinocyte HaCaT cells, by MTT assay. […] Moreover, the inhibition of MDA-MB-231 cell proliferation by Δ−3 was detected by using an EdU (5-ethynyl-2′-deoxyuridine) staining kit, and EdU was incorporated into newly synthesized DNA in the sample cells. The red fluorescent azide is small enough to diffuse freely through native tissues and DNA, and it covalently cross-links to the EdU in a “click” chemistry reaction.

[10] = tested on: MDA-MB-231 cells; assay: ICP detection of Ru content in cells; assay type: cell-based, human; conditions: 24 h, control 0.4
Protocol: MDA-MB-231 cells were seeded in 10 cm cell culture dishes. After cell adherence, the cells were treated with the drug (0, 2.5, 5, and 10 μM) for 24 h. After 24 h, the cells were washed with PBS three times and collected by trypsin. The number of collected cells was counted by a cell counter. Then, the cells were digested in 1 mL HNO3 solution by microwave digestion at 120 °C for 3 min, and 1 mL of this solution was transferred to a 5 mL volumetric flask, diluted with distilled water to volume, and mixed. The Ru content of these solutions was analyzed by an ICP optical emission spectrometer (NCS, Plasma 2000). All measurements were repeated three times.

Compound	IC50 [2] [µM]	IC50 [3] [µM]	IC50 [4] [µM]	IC50 [5] [µM]	Ru content in cells ([10]; 2.5 μM) [ng/mL per 1 × 10^4 cells]	Ru content in cells ([10]; 5 μM) [ng/mL per 1 × 10^4 cells]	Ru content in cells ([10]; 10 μM) [ng/mL per 1 × 10^4 cells]	IC50 [1] [µM]	IC50 [6] [µM]	ΔTm ([7]; complex 0.5 μM)	ΔTm ([7]; complex 1.0 μM) [°C]	minimum concentration necessary for effective inhibition (PCR products) [8] [µM]	proliferation rate (EdU) ([9]; 10 μM) [%]	proliferation rate (EdU) ([9]; 20 μM) [%]	proliferation rate (EdU) ([9]; 40 μM) [%]
N.N.[Cl][Pt][Cl] [Cis-platin, cisplatin, reference compound]	25.9 ± 1.9	14.27 ± 0.07	9.9 ± 0.25	12.7 ± 0.7				7.1 ± 0.5							
Δ-[Ru(bpy)2(BrDPPZ)](ClO4)2 [Δ−2]	94.5 ± 9.1	> 100	89.9 ± 11.3	> 100				> 100	> 100						
Λ-[Ru(bpy)2(3-NBEDPPZ)](ClO4)2 [Λ−3]	53.5 ± 1.7		55.4 ± 2.4	74.8 ± 2.4	0.56	1.44	2.47	> 100	> 100	approximately 2.2 °C	~4.9	5	34.0	27.5	11.3

Now from value to compound, other results behind:

IC50 [2] [µM]	IC50 [3] [µM]	IC50 [4] [µM]	IC50 [5] [µM]	Ru content in cells ([10]; 2.5 μM) [ng/mL per 1 × 10^4 cells]	Ru content in cells ([10]; 5 μM) [ng/mL per 1 × 10^4 cells]	Ru content in cells ([10]; 10 μM) [ng/mL per 1 × 10^4 cells]	Compound	IC50 [1] [µM]	IC50 [6] [µM]	ΔTm ([7]; complex 0.5 μM)	ΔTm ([7]; complex 1.0 μM) [°C]	minimum concentration necessary for effective inhibition (PCR products) [8] [µM]	proliferation rate (EdU) ([9]; 10 μM) [%]	proliferation rate (EdU) ([9]; 20 μM) [%]	proliferation rate (EdU) ([9]; 40 μM) [%]
> 100	> 100	> 100	> 100				Δ-[Ru(bpy)2(DPPZ)](ClO4)2 [Δ−1]	> 100	> 100						
92.1 ± 12.1	> 100	91.5 ± 10.8	> 100				Λ-[Ru(bpy)2(BrDPPZ)](ClO4)2 [Λ−2]	> 100	> 100						
60.8 ± 7.41	> 100	> 100	> 100				Λ-[Ru(bpy)2(DPPZ)](ClO4)2 [Λ−1]	> 100	> 100						
